# Results: patent publication US8338410B2, “Neuroprotective compounds and pharmaceutical compositions comprising them” (Biocodex, priority 2005, dated 2012)
# How the values were obtained:
# [1] = tested on: mixed cultures of rat cortical neurones and astrocytes; assay: Density of neuritic extensions marked by anti-neurofilament antibody, with or without excess glutamate; assay type: cell-based; settings: 10 μM of glutamate (so in the source), 6 hours, compound 1, 3 and 10 μM
# [2] = tested on: rats subjected to histotoxic hypoxia induced by potassium cyanide; assay: KCN (i.v.) hypoxia in rats (survival time); assay type: in vivo, Wistar male rats; settings: for Percentage variation / Survival time in seconds (m ± sem): Table 5: rats, KCN 4 mg/kg i.p. (so in the source)
# [3] = tested on: mixed cultures of rat cortical neurones and astrocytes; assay: Density of neuritic extensions marked by anti-neurofilament antibody, with or without excess glutamate; assay type: cell-based
# Text: The principle of the investigation consisted of evaluating the survival of cortical neurones in co-culture with astrocytes after the application of a neurotoxic agent, excess glutamate.
# Neurone survival is quantified by the density of the system of neuritic extensions marked by an anti-neurofilament antibody in the absence or presence of glutamate.
# (§1) • Cell type: Initial culture of cortical neurones from 14 day rat embryos and initial culture of cortical astrocytes from newborn rats. • Culture medium: DMEM-Ham F12 (Invitrogen 21331020) • B27 2% (invitrogen 17504044) • L-glutamine 2 mM (Invitrogen 25030024) • Penicillin 50 UI/ml—Streptomycin 50 μg/ml (Invitrogen 15070063) • Nerve Growth Factor 10 ng/ml (NGF, Invitrogen 13290.010) • Survival medium: MEM (Invitrogen 21090022) • L-glutamine 2 mM (Invitrogen 25030024) • Penicillin 50 UI/ml—Streptomycin 50 μg/ml (Invitrogen 15070063) • Supplement N2 (Invitrogen 17502-048) 1.2 Prior Cytotoxicity • Platelets: 96 wells • Culture time: 8 days • Cells/well: cortical neurones+astrocytes • Product range: from 100 μM then ratio 3 • Replicates: 3 • Cell/product contact: 48 hours • Evaluation parameters: microscopic observation and MTT hydrolysis. • MTT: 3-(4,5-dimethylthiozol-2-yl)-2,5-diphenyltetrazolium bromide 1.3 Treatment and Analysis of the Network of Extensions Marked with Antineurofilament Antibody
# The cortical neurones were obtained from the cortex of 14 day rat embryos cultured in platelet culture medium 96 and then in a stove at 37° C. and 5% CO2 with saturated humidity. After 2 days culture astrocytes obtained from newborn rat cortex were seeded in the wells (in a ratio of 1 astrocyte to 4 neurones). After 10 days culture the mature neurones synthesised neurofilaments (structural protein specific to mature neurones); in addition to this these neurones expressed functional receptors to glutamate on their surfaces and could therefore be intoxicated.
# On the 12th day of culture the medium was replaced by survival medium with or without etifoxine in 3 concentrations and the neurones were or were not intoxicated with glutamate (Sigma G1501) at a strength of 2 mM and 10 mM. Each culture condition was applied to 4 wells. The cultures were incubated for 2 periods (6 and 24 hours).
# A positive control was carried out in the survival culture medium containing Nerve Growth Factor (NGF; 10 ng/ml) and basic Fibroblast Growth Factor (FGFb; 5 ng/ml) and the cells were intoxicated under the same conditions.
# At the end of the two incubation periods (6 and 24 hours) the cell layers were fixed and marked with a anti-68- and 200 kD neurofilament monoclonal antibody (DAKO M0762) and then developed using a mouse anti-immunoglobulin goat antibody conjugate Alexia fluor 488 (Interchim A-11029). Controls without primary antibody were performed. All the controls were negative (no non-specific labelling). After extensive washing with PBS the preparations were observed under epi-fluorescence (Nikon Diaphot 300 microscope).
# 2 images were obtained for each culture well (4 wells per experimental condition) using a Nikon DXM1200F camera controlled by LUCIA 6.0 software.
# All the images were obtained under the same conditions and with identical camera settings.
# The densities of the networks of extensions marked with anti-neurofilament antibody were examined using LUCIA 6.0 software. Initial image processing made it possible to increase the intensity of the specific marking on the extensions. Areas in which marking was positive were binarised and the percentage marking per image was determined (marked surface area/total surface area examined).
# The results (mean values±standard error with respect to the mean (SEM) were expressed as percentage marking per microscope field (n=8 measurements/culture conditions). 2-factor analysis of variance (Etifoxine and glutamate), followed by the Student Newman-Keuls multiple comparisons test was used for statistical comparison of the results. […]
# [4] = tested on: mice subjected to hypobaric hypoxia; assay: Hypobaric hypoxia in mice (survival time); assay type: in vivo, NMRI male mice; settings: for Percentage variation / Survival time in seconds (m ± sem): Table 4: mice, hypobaric hypoxia 160 mmHg
# Procedure: 1.1 Hypobaric Hypoxia in Mice
# NMRI male mice from Janvier weighing between 25 and 30 grams were used after acclimatisation in the animal house for at least 7 days (t°=22±2° C.; humidity 50±20%; feed UAR “A04” SAFE (Augy, France) and tap water ad libitum; 12 hour night and day cycle (light from 7 a.m. to 7 p.m.).
# The unfasting […] were distributed at random into lots of 10.
# The protocol of Nakaniski et al. (1973) Life Sciences, 13, 467-474 was adapted for the purposes of the model.
# Each mouse was placed in a dessicator (hermetically sealed enclosure) in which atmospheric pressure was reduced from 760 to 160 mmHg using a water pump. This pressure reduction was carried out in one minute and caused death of the control animals in approximately 1 minute.
# The survival time of the animal, which corresponded to the difference between the time to death of the mouse assessed by respiratory arrest less the time required to induce the hypoxia was then noted.
# The products under investigation were administered intraperitoneally (i.p.) (0.1 ml/10 g), 30 minutes before inducing hypobaric hypoxia, or orally (0.1 ml/10 g p.o.) 1 hour before hypoxia.
# Etifoxine hydrochloride was dissolved in 1% Tween 80. The potassium cyanide (Merck) was dissolved in 0.9% NaCl.
# The statistical test used was a one-factor analysis of variance to determine the treated groups, which differed from the control group receiving the vehicle, at a threshold of 5%.
# [5] = tested on: cortical neurones in the presence of astrocytes in culture; assay: Prior cytotoxicity, microscopic observation after 48 hours; assay type: cell-based; settings: 100 μM, 48 hours incubation
# Procedure: as §1
# A first experiment was carried out (conventional test used to measure the level of cell survival) in order to investigate the cytotoxicity of etifoxine in relation to cortical neurones in the presence of astrocytes in culture and thus to determine the maximum non-toxic concentration of etifoxine.
compound,measurement,setting,value
"CC1(c2ccccc2)OC(N)=Nc2ccc(Cl)cc21 (stereo not shown) [desethyl-etifoxine, 2-amino-6-chloro-4-methyl-4-phenyl-4H-[3,1]benzoxazine]",density of marked neurofilaments in the presence of glutamate,[1],opposes the decrease in the density of marked neurofilaments
same,Percentage variation,[2]; compound i.p. dose 30,−4%
same,Survival time in seconds (m ± sem),[2]; compound i.p. dose 30,55.0 ± 1.5 s
same,Percentage variation,[2]; compound i.p. dose 50,−3%
same,Survival time in seconds (m ± sem),[2]; compound i.p. dose 50,55.6 ± 1.5 s
same,Percentage variation,[2]; compound i.p. dose 75,+27%
same,Survival time in seconds (m ± sem),[2]; compound i.p. dose 75,72.7 ± 5.5 s
same,Percentage variation,[2]; compound p.o. dose 50,+3%
same,Survival time in seconds (m ± sem),[2]; compound p.o. dose 50,58.8 ± 1.9 s
same,Percentage variation,[2]; compound p.o. dose 100,+42%
same,Survival time in seconds (m ± sem),[2]; compound p.o. dose 100,81.3 ± 3.8 s
same,Percentage variation,[2]; compound p.o. dose 200,+43%
same,Survival time in seconds (m ± sem),[2]; compound p.o. dose 200,81.7 ± 4.1 s
same,survival time,"[2]; rats, KCN hypoxia, 75 mg/kg i.p.",increased survival time in a non-significant manner
same,anti-hypoxic activity,"[2]; rats, KCN hypoxia, over 100 mg/kg p.o.",showed anti-hypoxic activity
same,density of marked neurofilaments,"[3]; control culture medium (without glutamate), 6 hours, significant at 10 μM",increased the density of labelled neurofilaments in a statistically significant way
same,density of neurofilaments in the presence of glutamate,"[3]; glutamate 2 mM, 6 hours, only 10 μM of compound",opposes the effect of glutamate
same,Percentage variation,[4]; i.p. dose 30,+34%
same,Survival time in seconds (m ± sem),[4]; i.p. dose 30,71.7 ± 4.8 s
same,Percentage variation,[4]; i.p. dose 50,+32%
same,Survival time in seconds (m ± sem),[4]; i.p. dose 50,70.7 ± 4.3 s
same,Percentage variation,[4]; i.p. dose 75,+30%
same,Survival time in seconds (m ± sem),[4]; i.p. dose 75,69.8 ± 2.7 s
same,Percentage variation,[4]; p.o. dose 100,+45%
same,Survival time in seconds (m ± sem),[4]; p.o. dose 100,61.0 ± 2.6 s
same,Percentage variation,[4]; p.o. dose 200,+126%
same,Survival time in seconds (m ± sem),[4]; p.o. dose 200,94.9 ± 9.9 s
same,Percentage variation,[4]; p.o. dose 300,+126%
same,Survival time in seconds (m ± sem),[4]; p.o. dose 300,94.8 ± 11.2 s
same,survival time,"[4]; mice, hypobaric hypoxia, oral administration from 200 mg/kg",significant increase in survival time
same,anti-hypoxic activity,"[4]; mice, hypobaric hypoxia, over 30 mg/kg i.p.",showed anti-hypoxic activity
same,"astrocyte mortality, visual examination with a microscope",[5],astrocyte mortality was observed
FGF: positive control: survival culture medium containing Nerve Growth Factor (NGF; 10 ng/ml) and basic Fibroblast Growth Factor (FGFb; 5 ng/ml),density of neurofilaments in the presence of glutamate,"[3]; positive control NGF 10 ng/ml + FGFb 5 ng/ml, glutamate 2 mM, 24 hours",opposed the effects of 2 mM of glutamate
same,density of neurofilaments in the presence of glutamate,"[3]; positive control NGF 10 ng/ml + FGFb 5 ng/ml, glutamate 2 and 10 mM, 6 hours",opposed the decrease in density of neurofilaments induced by glutamate
